Source: patent US20260176282A1, “BICYCLIC COMPOUNDS AS CDK INHIBITORS” (BEONE MEDICINES I GMBH, priority 2023, published 2026)
Where two headings read alike, the source gives them in different places.

Experiments:
CDK2/Cyclin E1 = CDK2/Cyclin E1 (Homo sapiens, UniProt P24941); assay: CDK2/Cyclin E1 TR-FRET biochemical assay (0.060 mM ATP); conditions: 120 minutes reaction
Description: (§1) Compounds disclosed herein were tested for inhibition of CDK2/Cyclin E1 or CDK1/Cyclin B1 kinase in an assay based on the time-resolved fluorescence-resonance energy transfer (TR-FRET) methodology. The assay was carried out in 384-well low volume black plates in a reaction mixture containing CDK2/Cyclin E1 or CDK1/Cyclin B1, 0.060 mM ATP for CDK2/Cyclin E1 or 0.015 mM ATP for CDK1/Cyclin B1, 0.15 μM Rb (Ser780)-biotin substrate and 0-10 μM compound in buffer containing 50 mM HEPES pH7.0, 0.02% NaN3, 0.01% BSA, 0.1 mM Orthovanadate, 50 mM MgCl2, 1 mM DTT and 0.005% Tween-20. The kinase was incubated with compound for 60 minutes at room temperature and the reaction was initiated by the addition of ATP and Rb (Ser780)-biotin substrate. After reaction at room temperature for 120 minutes, an equal volume of stop/detection solution was added according to the manufacture's instruction (Cisbio Bioassays). The stop/detection solution contained Streptavidin-XL665 and Anti-pRb (Ser780) mAb-Eu Cryptate in Detection buffer (Cisbio Bioassays). Plates were incubated at room temperature for 60 minutes, and the TR-FRET signals (ex337 nm, em665 nm/620 nm) were recorded on a PHERAstar FSX plate reader (BMG Labtech). The inhibition percentage of CDK2/Cyclin E1 or CDK1/Cyclin B1 kinase activity in presence of increasing concentrations of compounds was calculated based on the ratio of fluorescence at 665 nm to that at 620 nm. The IC50 for each compound was derived from fitting the data to the four-parameter logistic equation by Dotmatics.

CDK1/Cyclin B1 = CDK1/Cyclin B1 (Homo sapiens, UniProt P06493); assay: CDK1/Cyclin B1 TR-FRET biochemical assay (0.015 mM ATP); conditions: 120 minutes reaction
Description: as §1

HEK-293 cells = assay: HEK-293 cell cytotoxicity detection (CellTiter-Glo); type: cell-based; conditions: incubation of 72 h, CellTiter-Glo luminescence
Description: HEK-293 cells were treated with compounds diluted in 0.4% DMSO, dilution was done according to the following protocol: (1) making 250× stock solution in DMSO from 10 mM by 4-fold dilution, total 8 doses were included; (2) making 2 solution in cell culture medium by transferring 1 μl 250× stock solution into 124 μl medium; (3) adding 50 μl of 2× solution to cells for incubation of 72 h.
25 μl of the CellTiter-Glo® Reagent [(PromegaCat #G9242)] was added to each well in the 96-well plate. The contents were mixed for 2 minutes on an orbital shaker to induce cell lysis. The plate was then allowed to incubate at room temperature for 10 minutes to stabilize luminescent signal. Luminescence was recorded on BMG PheraStar with luminescence protocol.
The IC50 value of a compound can be obtained by fitting the following equation: […]
Wherein, X and Y are known values, and IC50, Hillslope, Top and Bottom are the parameters obtained by fitting with software. Y is the inhibition percentage (calculated from the equation), X is the concentration of the compound; IC50 is the concentration of the compound when the 50% inhibition is reached. The smaller the IC50 value is, the stronger the inhibitory ability of the compound is. Vice versa, the higher the IC50 value is, the weaker the ability the inhibitory ability of the compound is; Hillslope represents the slope of the fitted curve, generally around 1*; Bottom represents the minimum value of the curve obtained by data fitting, which is generally 0%±20%; Top represents the maximum value of the curve obtained by data fitting, which is generally 100%±20%. The experimental data were fitted by calculating and analyzing with Dotmatics data analysis software.

CDK1/Cyclin B1, sequence (P06493 whole entry): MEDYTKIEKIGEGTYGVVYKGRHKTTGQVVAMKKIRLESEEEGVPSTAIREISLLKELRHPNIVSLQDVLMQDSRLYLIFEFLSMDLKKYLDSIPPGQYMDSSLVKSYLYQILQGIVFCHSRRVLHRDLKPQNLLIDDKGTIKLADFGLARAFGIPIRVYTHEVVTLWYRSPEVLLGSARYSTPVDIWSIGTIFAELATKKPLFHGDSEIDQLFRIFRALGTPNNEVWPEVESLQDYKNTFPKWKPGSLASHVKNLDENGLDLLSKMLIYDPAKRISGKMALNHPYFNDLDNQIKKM
CDK1/Cyclin B1, sequence (P14635 whole entry partner): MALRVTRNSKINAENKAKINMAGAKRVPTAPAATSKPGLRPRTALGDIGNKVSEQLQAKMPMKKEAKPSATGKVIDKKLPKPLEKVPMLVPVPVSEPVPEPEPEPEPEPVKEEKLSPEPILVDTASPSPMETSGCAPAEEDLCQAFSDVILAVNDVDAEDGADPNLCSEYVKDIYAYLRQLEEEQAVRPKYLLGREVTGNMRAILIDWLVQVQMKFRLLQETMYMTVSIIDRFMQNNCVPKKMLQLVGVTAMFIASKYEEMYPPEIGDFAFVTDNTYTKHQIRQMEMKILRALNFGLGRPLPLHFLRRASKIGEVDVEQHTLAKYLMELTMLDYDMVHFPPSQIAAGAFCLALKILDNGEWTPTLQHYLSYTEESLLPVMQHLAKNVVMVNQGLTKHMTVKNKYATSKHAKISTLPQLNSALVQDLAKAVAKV

SMILES	IC50 (CDK2/Cyclin E1) [nM]	IC50 (CDK1/Cyclin B1) [nM]	IC50 (HEK-293 cells; Homo sapiens, HEK293, 72 h) [nM]	IC50 (HEK-293 cells; read-out: HEK293 IC50) [nM]
CC(C)NC(=O)OC1CCC(c2cc(Nc3ccc4c(c3F)CCS4(=O)=O)n[nH]2)C1 (single isomer, unassigned) [Example 2a, cis-3-(3-((4-fluoro-1,1-dioxido-2,3-dihydrobenzo[b]thiophen-5-yl)amino)-1H-pyrazol-5-yl)cyclopentyl isopropylcarbamate]	16	591	> 10000	–
CC(C)NC(=O)OC1CCC(c2cc(Nc3ccc4c(c3F)CCS4(=O)=O)n[nH]2)C1 (single isomer, unassigned) [Example 2b, cis-3-(3-((4-fluoro-1,1-dioxido-2,3-dihydrobenzo[b]thiophen-5-yl)amino)-1H-pyrazol-5-yl)cyclopentyl isopropylcarbamate]	4.8	207	–	> 10000
CC(C)NC(=O)OC1CCC(c2cc(Nc3ccc4c(c3F)S(=O)(=O)CC4)n[nH]2)C1 (single isomer, unassigned) [Example 3a, cis-3-(3-((7-fluoro-1,1-dioxido-2,3-dihydrobenzo[b]thiophen-6-yl)amino)-1H-pyrazol-5-yl)cyclopentyl isopropylcarbamate]	4.1	132	–	1780
CC(C)NC(=O)OC1CCC(c2cc(Nc3ccc4c(c3F)S(=O)(=O)CC4)n[nH]2)C1 (single isomer, unassigned) [Example 3b, cis-3-(3-((7-fluoro-1,1-dioxido-2,3-dihydrobenzo[b]thiophen-6-yl)amino)-1H-pyrazol-5-yl)cyclopentyl isopropylcarbamate]	1.9	31	–	677
CCCNC(=O)OC1CCC(c2cc(Nc3ccc4c(c3F)CS(=O)(=O)C4)n[nH]2)C1 (single isomer, unassigned) [Example 9a, cis-3-(3-((4-fluoro-2,2-dioxido-1,3-dihydrobenzo[c]thiophen-5-yl)amino)-1H-pyrazol-5-yl)cyclopentyl propylcarbamate]	0.8	50	–	> 10000
CC[C@H](C)NC(=O)OC1CCC(c2cc(Nc3ccc4c(c3F)S(=O)(=O)CC4)n[nH]2)C1 (stereo in doubt) [Example 5, cis-3-(3-((7-fluoro-1,1-dioxido-2,3-dihydrobenzo[b]thiophen-6-yl)amino)-1H-pyrazol-5-yl)cyclopentyl ((S)-sec-butyl)carbamate]	5	117	1650	–

Molecules with a lower IC50 (CDK2/Cyclin E1), results first:

IC50 (CDK2/Cyclin E1) [nM]	IC50 (CDK1/Cyclin B1) [nM]	SMILES	IC50 (HEK-293 cells; Homo sapiens, HEK293, 72 h) [nM]	IC50 (HEK-293 cells; read-out: HEK293 IC50) [nM]
0.5	7.9	CC(C)NC(=O)O[C@H]1CC[C@@H](c2cc(Nc3ccc4c(c3F)CS(=O)(=O)C4)n[nH]2)C1 (relative stereo) [Example 8b, cis-3-(3-((4-fluoro-2,2-dioxido-1,3-dihydrobenzo[c]thiophen-5-yl)amino)-1H-pyrazol-5-yl)cyclopentyl isopropylcarbamate]	462	–
0.3	3.3	CC1(NC(=O)O[C@H]2CC[C@@H](c3cc(Nc4ccc5c(c4F)CS(=O)(=O)C5)n[nH]3)C2)CC1 (relative stereo) [Example 11, cis-3-(3-((4-fluoro-2,2-dioxido-1,3-dihydrobenzo[c]thiophen-5-yl)amino)-1H-pyrazol-5-yl)cyclopentyl (1-methylcyclopropyl)carbamate]	317	–
0.6	10	COCC(C)(C)NC(=O)O[C@H]1CC[C@@H](c2cc(Nc3ccc4c(c3F)CS(=O)(=O)C4)n[nH]2)C1 (relative stereo) [Example 14, cis-3-(3-((4-fluoro-2,2-dioxido-1,3-dihydrobenzo[c]thiophen-5-yl)amino)-1H-pyrazol-5-yl)cyclopentyl (1-methoxy-2-methylpropan-2-yl)carbamate]	> 10000	–
0.7	30	CC(C)NC(=O)O[C@@H]1CC[C@H](c2cc(Nc3ccc4c(c3F)CS(=O)(=O)C4)n[nH]2)C1 (single isomer, unassigned) [Example 8a, cis-3-(3-((4-fluoro-2,2-dioxido-1,3-dihydrobenzo[c]thiophen-5-yl)amino)-1H-pyrazol-5-yl)cyclopentyl isopropylcarbamate]	514	–
0.7	12	CCCNC(=O)OC1CCC(c2cc(Nc3ccc4c(c3F)CS(=O)(=O)C4)n[nH]2)C1 (single isomer, unassigned) [Example 9b, cis-3-(3-((4-fluoro-2,2-dioxido-1,3-dihydrobenzo[c]thiophen-5-yl)amino)-1H-pyrazol-5-yl)cyclopentyl propylcarbamate]	–	4410
0.4	5	CC[C@H](C)NC(=O)OC1CCC(c2cc(Nc3ccc4c(c3F)CS(=O)(=O)C4)n[nH]2)C1 (stereo in doubt) [Example 10, cis-3-(3-((4-fluoro-2,2-dioxido-1,3-dihydrobenzo[c]thiophen-5-yl)amino)-1H-pyrazol-5-yl)cyclopentyl ((S)-sec-butyl)carbamate]	203	–
